The source of these data is patent publication US20230089267A1, “Compositions and Methods For Reducing Immune Intolerance and Treating Autoimmune Disorders” (Lapix Therapeutics, Inc., priority 2021, published 2023).

For assay [1], the system named is MOG35-55-induced murine EAE model. Kind of assay: MOG35-55-induced murine EAE model, Compound 2 versus Compound 8 (Example 12). The settings on record: 3 μg/mouse/day SC, after ten days of treatment. It is filed as in vivo, mice. The protocol:
Mice were immunized with 100 μg MOG35-55 emulsified with CFA and pertussis toxin, as described in Example 4. At disease onset (clinical score 1), mice were randomized into two treatment groups, and received 3 μg/mouse/day SC of either Compound 2 or Compound 8.

For assay [2], the system named is DSS-induced IBD model. Kind of assay: Dextran sulfate sodium (DSS)-induced IBD model. Type of assay: in vivo, mice. As to conditions: 30 μg SC for 7 days then 3 μg SC for 7 days, both disease cycles. How it is done: IBD was induced in 6-8-week-old female C57/B6 mice by adding 3% DSS (Sigma Aldrich) in their drinking water for 3 days on 2 different occasions (days 0, 1, and 2 of the induction phase and days 11, 12, and 13 of the re-exposure phase). One group (n=5) was treated with Compound 2 (30 μg SC for 7 days) during the disease induction phase followed by a lower dose of Compound 2 (3 μg SC for 7 days) during the disease re-exposure phase. […] Mice body weight was monitored daily starting on day 0.

For assay [3], the system named is Th17 (RORγt) cells. Kind of assay: Human PBMCs in Th17 polarizing environment, Foxp3 and RORγt expression. Type of assay: cell-based. How it is done: Total human PBMCs isolated from healthy human volunteers were cultured in vitro in a Thl7 polarizing environment as follows: • Day 0: 2×10^5 cells/well were incubated in a 96 round bottomed-well plate (final volume 200 μl) with (i) anti CD3/CD28 microbead for T-cell activation (1 bead/10 cells), (ii) 10 ng/ml IL-6, 2 ng/ml TGFβ and 10 ng/ml IL-23, and (iii) 10 μg/ml anti-IFNγ and 10 μg/ml anti-IL-4. • Day 4: Each well was split into two wells, and 100 μl of media containing the same cytokine/antibody cocktail used at day 0 was added to each well in the presence of ascending doses of Compound 2 (0, 0.1, 0.3, 1, and 3 ng/ml). • Day 9: Cells were washed and stained for surface staining (CD3, CD4), then viability dye to exclude dead cells. Intranuclear staining was performed after cell fixation and permeabilization for transcription factors Foxp3 and RORγt. Cells were washed and fixed for acquisition by Attune NXT flow cytometer. Data were analyzed by FlowJov10.

Assay [4] has as its system FoxP3+/CD4+ T-cells (spleen). Kind of assay: Pharmacodynamics of a single ascending dose in mice, splenic T-cell phenotyping. Type of assay: in vivo. As to conditions: for percent of FoxP3+/CD4+ T-cells, mean: single dose, spleen five days after dose. The protocol:
All animal studies were conducted under IACUC number B2020-91 and in compliance with Tufts University/Tufts Medical Center & Human Nutrition Research Center on Aging. Animals were housed 4 per cage and had access to food and water ad libitum. Compound 2 was formulated with 10% DMSO in PBS buffer.
This study was designed to evaluate the PD effects of a single dose of Compound 2 in mice. Animals were administered a single oral gavage, as per their group assignment. Five days after the oral dose, animals were sacrificed, and their spleens were collected for T-cell phenotyping. FIG. 2A is a schematic diagram of the study design.
For ex vivo analysis, spleens were collected for splenocyte analysis, and prepared into a single-cell suspension for cellular phenotyping by flow cytometry. Cells were stained and gated for CD4. Percent FoxP3+/CD4+ T-cells and percent FoxP3+/NRP1+ were evaluated using flow cytometry. For dose-response analysis, dose versus response was fitted to 4- and 5-parameters, log-logistic models using the “dre” package in “R”. Both EC50 and EC90 were obtained by model fitting.

For assay [5], the system named is human B-cells (CD19+CD71+IgM+). Kind of assay: Regulatory B-cell induction in human PBMCs. As to conditions: 10 ng/ml, five days. It is filed as cell-based. How it is done: 2×10^5 Total PBMCs or T-cell depleted PBMCs were cultured in a 96-well plate in the presence of ascending doses of Compound 2 ranging from 0 to 10 ng/ml for five days. At day 5, cells were washed and stained for CD19, CD71 and IgM for 30 minutes on ice, then cells were washed with PBS, and stained with viability dye to exclude dead cells.

Assay [6] has as its system MOG35-55-induced murine EAE model. The assay is described as follows: MOG35-55-induced murine EAE model versus standards of care (Example 4). It is filed as in vivo, mice. How it is done: Experimental autoimmune (allergic) encephalomyelitis (EAE) is considered the best non-clinical model of multiple sclerosis (MS). EAE is characterized by immune responses against CNS tissue and can be induced in animals by immunizing them against proteins of the CNS. In the active EAE model, mice are immunized with MOG35-55 peptide emulsified in Complete Freund's Adjuvant (CFA) by subcutaneous injection at the tail base (0.1 mL of emulsion/mouse) under anesthesia. On the day of injection (Day 0) and 2 days later, mice receive an intraperitoneal injection of Pertussis Toxin (PT) in PBS at 600 ng/mouse/dose (0.1 mL).
Symptoms typically develop in mice 9-14 days after immunization (Day 0). Daily observation and scoring of mice start on Day 9 and continue until the end of the study. Table 5 details the expected clinical symptoms and the scoring criteria used in this study.
To evaluate the therapeutic effects of Compound 2, treatment was initiated after the first clinical symptoms were observed. […] Mice in all groups were monitored and scored daily for clinical symptoms.
At the end of the study, spleens were collected from a representative sample of mice from each group for splenocyte analysis. A single-cell suspension was prepared for cellular phenotyping by flow cytometry. Cells were stained and gated for CD4+ T-cells. Percent FoxP3+/CD4+ T-cells were evaluated by flow cytometry.

Assay [7] deals with pristane-induced lupus model. The assay is described as follows: Pristane-induced lupus model. Type of assay: in vivo, mice. The settings on record: 3 μg SC daily, interim data. The protocol:
Four-week old female Balb/c mice received 0.5 ml IP injection of pristane (Sigma Aldrich). Eight weeks post pristane injection, all mice tested positive for anti-dsDNA antibody titers (FUJIFILM Wako Pure Chemical Corporation), indicating systemic disease onset. On Day 60, mice were randomized to treatment (n=12) (Compound 2, 3 μg SC daily) or control group (n=11), and treatment was started. Mice were monitored daily for cutaneous lupus symptoms by checking for the appearance of skin lesions.

Where [8] appears, read: four-parameter dose-response model, single dose per mouse.

Consider `N[C@@H](CNC(=O)Cc1ccc(OCc2cccc3ccccc23)cc1)C(=O)O` [Compound 2, (S)-2-Amino-3-(2-(4-(naphthalen-1-ylmethoxy)phenyl)acetamido)propanoic acid], for which the “mean clinical score, comparison of the two groups” value in assay [1] is reported as “no statistical difference”. Further, in assay [2], the body weight change entry is “less weight loss and more rapid recovery than untreated animals”. For the same compound, in assay [3], the “decrease in RORγt cells” value stood at 80% and the “percentage of Th17, mean after treatment” value worked out at 1.1%. For the same compound, in assay [4] (setting [8]), the “ED50 for FoxP3+/CD4+ T-cells” value came out at 4.88 µg and the “ED90 for FoxP3+/CD4+ T-cells” value was 82.1 µg. The “increase of the number of FoxP3+/CD4+ T-cells (T-reg)” value in assay [4] (from the lowest dose to the highest dose group) is 150%. Further, the “percent of FoxP3+/CD4+ T-cells, mean” value in assay [4] (highest dose group) amounted to 25.4%. Besides, the “percent of FoxP3+/CD4+ T-cells, mean” value in assay [4] (lowest dose group) came out at 10.7%. Also, the “percentage of B-reg (CD19+CD71+IgM+)” value in assay [5] (T-cell depleted PBMCs) was 14.0%. In addition, in assay [5] (total PBMC cultures), the “percentage of B-reg (CD19+CD71+IgM+)” value is reported as 17.5%. In assay [6] (10-μg oral dose following one or two injections of anti-alpha4 integrin), the “disease control after switching from anti-alpha4 integrin” value was “resulted in disease control after disease onset”. The “control of MS symptoms after disease onset versus glatiramer acetate” value in assay [6] (all doses and regimens) is given as “more effective than glatiramer acetate”. Also, in assay [6] (daily 10-μg oral dose), the “control of MS symptoms after disease onset versus anti-alpha4 integrin” value is listed as “as effective as a full regimen of anti-alpha4 integrin”. In assay [6] (doses of Table 6, treatment from clinical score 1), the “MS clinical score after disease onset” value is given as “reduced the MS clinical score after disease onset in a dose-dependent manner”. For the same compound, the “incidence of cutaneous lupus” value in assay [7] (after two weeks of treatment) was determined as 8%. Also, the “onset of cutaneous symptoms compared to untreated control mice” value in assay [7] is “delayed by two days”.
